# Test results: PubChem BioAssay (NCI)
#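 Results reflect a 48-hour exposure of cells in 96-well plates to compound at five concentrations. GI50 is the concentration that inhibits growth by half. TGI: concentration producing complete growth inhibition.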
# Columns and labels:
# Experiment in all cases: DTP human tumour cell line panel, 48 h
# HCT-116 colon = tested on: HCT-116 colon
# RXF 393 renal = tested on: RXF 393 renal
# MOLT-4 leukemia = tested on: MOLT-4 leukemia
# SW-620 colon = tested on: SW-620 colon
# RPMI-8226 leukemia = tested on: RPMI-8226 leukemia
# NCI/ADR-RES ovarian = tested on: NCI/ADR-RES ovarian
# HCT-15 colon = tested on: HCT-15 colon
# 786-0 renal = tested on: 786-0 renal
# ACHN renal = tested on: ACHN renal
# TK-10 renal = tested on: TK-10 renal
# SK-OV-3 ovarian = tested on: SK-OV-3 ovarian
# MDA-MB-231 breast = tested on: MDA-MB-231 breast
# SK-MEL-2 melanoma = tested on: SK-MEL-2 melanoma
# OVCAR-5 ovarian = tested on: OVCAR-5 ovarian
# MDA-MB-435 = tested on: MDA-MB-435
# NCI-H522 lung = tested on: NCI-H522 lung
# PC-3 prostate = tested on: PC-3 prostate
# U251 CNS = tested on: U251 CNS
# BT-549 breast = tested on: BT-549 breast
# SF-268 CNS = tested on: SF-268 CNS
# A498 renal = tested on: A498 renal
# HCC-2998 colon = tested on: HCC-2998 colon
# LOX IMVI melanoma = tested on: LOX IMVI melanoma
# UACC-257 melanoma = tested on: UACC-257 melanoma
# HOP-62 NSCLC = tested on: HOP-62 NSCLC
# KM12 colon = tested on: KM12 colon
# HL-60(TB) leukemia = tested on: HL-60(TB) leukemia
# SNB-19 CNS = tested on: SNB-19 CNS
# T-47D breast = tested on: T-47D breast
# CCRF-CEM leukemia = tested on: CCRF-CEM leukemia
# DU-145 prostate = tested on: DU-145 prostate
# OVCAR-8 ovarian = tested on: OVCAR-8 ovarian
# COLO 205 colon = tested on: COLO 205 colon
# OVCAR-3 ovarian = tested on: OVCAR-3 ovarian
# IGROV1 ovarian = tested on: IGROV1 ovarian
# SR leukemia = tested on: SR leukemia
# NCI-H460 lung = tested on: NCI-H460 lung
# SK-MEL-28 melanoma = tested on: SK-MEL-28 melanoma
# SK-MEL-5 melanoma = tested on: SK-MEL-5 melanoma
# A549 NSCLC = tested on: A549 NSCLC
# MCF7 breast = tested on: MCF7 breast
# OVCAR-4 ovarian = tested on: OVCAR-4 ovarian
# CAKI-1 renal = tested on: CAKI-1 renal
# K-562 leukemia = tested on: K-562 leukemia
# NCI-H23 lung = tested on: NCI-H23 lung
# SF-295 CNS = tested on: SF-295 CNS
# UO-31 renal = tested on: UO-31 renal
# M14 melanoma = tested on: M14 melanoma
# SN12C renal = tested on: SN12C renal
# SF-539 CNS = tested on: SF-539 CNS
# HS 578T breast = tested on: HS 578T breast
# MALME-3M melanoma = tested on: MALME-3M melanoma
# SNB-75 CNS = tested on: SNB-75 CNS
# UACC-62 melanoma = tested on: UACC-62 melanoma
# HOP-92 NSCLC = tested on: HOP-92 NSCLC
# HT29 colon = tested on: HT29 colon
# NCI-H226 lung = tested on: NCI-H226 lung
structure (smiles),measurement,setting,value
CCCOC(=O)c1ccc2c(c1)[N+](=O)C(C(=O)c1ccccc1)=C(C(F)(F)F)[N+]2=O,GI50,HCT-116 colon,1700 nM
same,TGI,HCT-116 colon,3360 nM
same,GI50,RXF 393 renal,1700 nM
same,TGI,RXF 393 renal,3250 nM
same,GI50,MOLT-4 leukemia,2050 nM
same,TGI,MOLT-4 leukemia,4090 nM
same,GI50,SW-620 colon,1840 nM
same,TGI,SW-620 colon,3680 nM
same,GI50,RPMI-8226 leukemia,1940 nM
same,TGI,RPMI-8226 leukemia,4110 nM
same,GI50,NCI/ADR-RES ovarian,1890 nM
same,TGI,NCI/ADR-RES ovarian,3690 nM
same,GI50,HCT-15 colon,1630 nM
same,TGI,HCT-15 colon,3300 nM
same,GI50,786-0 renal,1830 nM
same,TGI,786-0 renal,3320 nM
same,GI50,ACHN renal,1780 nM
same,TGI,ACHN renal,3260 nM
same,GI50,TK-10 renal,1590 nM
same,TGI,TK-10 renal,2990 nM
same,GI50,SK-OV-3 ovarian,1890 nM
same,TGI,SK-OV-3 ovarian,3330 nM
same,GI50,MDA-MB-231 breast,1910 nM
same,TGI,MDA-MB-231 breast,3450 nM
same,GI50,SK-MEL-2 melanoma,1840 nM
same,TGI,SK-MEL-2 melanoma,3520 nM
same,GI50,OVCAR-5 ovarian,1770 nM
same,TGI,OVCAR-5 ovarian,3310 nM
same,GI50,MDA-MB-435,1710 nM
same,TGI,MDA-MB-435,3260 nM
same,GI50,NCI-H522 lung,1800 nM
same,TGI,NCI-H522 lung,3500 nM
same,GI50,PC-3 prostate,1550 nM
same,TGI,PC-3 prostate,2940 nM
same,GI50,U251 CNS,1760 nM
same,TGI,U251 CNS,3200 nM
same,GI50,BT-549 breast,1790 nM
same,TGI,BT-549 breast,3270 nM
same,GI50,SF-268 CNS,1780 nM
same,TGI,SF-268 CNS,3480 nM
same,GI50,A498 renal,1300 nM
same,TGI,A498 renal,2830 nM
same,GI50,HCC-2998 colon,1810 nM
same,TGI,HCC-2998 colon,3290 nM
same,GI50,LOX IMVI melanoma,1720 nM
same,TGI,LOX IMVI melanoma,3350 nM
same,GI50,UACC-257 melanoma,1750 nM
same,TGI,UACC-257 melanoma,3220 nM
same,GI50,HOP-62 NSCLC,1800 nM
same,TGI,HOP-62 NSCLC,3370 nM
same,GI50,KM12 colon,1810 nM
same,TGI,KM12 colon,3440 nM
same,GI50,HL-60(TB) leukemia,1960 nM
same,TGI,HL-60(TB) leukemia,3880 nM
same,GI50,SNB-19 CNS,1750 nM
same,TGI,SNB-19 CNS,3220 nM
same,GI50,T-47D breast,1800 nM
same,TGI,T-47D breast,3690 nM
same,GI50,CCRF-CEM leukemia,1850 nM
same,TGI,CCRF-CEM leukemia,3980 nM
same,GI50,DU-145 prostate,1840 nM
same,TGI,DU-145 prostate,3310 nM
same,GI50,OVCAR-8 ovarian,1840 nM
same,TGI,OVCAR-8 ovarian,3550 nM
same,GI50,COLO 205 colon,2090 nM
same,TGI,COLO 205 colon,3850 nM
same,GI50,OVCAR-3 ovarian,1740 nM
same,TGI,OVCAR-3 ovarian,3170 nM
same,GI50,IGROV1 ovarian,1830 nM
same,TGI,IGROV1 ovarian,3610 nM
same,GI50,SR leukemia,1880 nM
same,TGI,SR leukemia,4850 nM
same,GI50,NCI-H460 lung,2040 nM
same,TGI,NCI-H460 lung,4280 nM
same,GI50,SK-MEL-28 melanoma,1850 nM
same,TGI,SK-MEL-28 melanoma,3510 nM
same,GI50,SK-MEL-5 melanoma,1650 nM
same,TGI,SK-MEL-5 melanoma,3110 nM
same,GI50,A549 NSCLC,1670 nM
same,TGI,A549 NSCLC,3330 nM
same,GI50,MCF7 breast,1640 nM
same,TGI,MCF7 breast,3330 nM
same,GI50,OVCAR-4 ovarian,1740 nM
same,TGI,OVCAR-4 ovarian,3360 nM
same,GI50,CAKI-1 renal,1780 nM
same,TGI,CAKI-1 renal,3370 nM
same,GI50,K-562 leukemia,2100 nM
same,TGI,K-562 leukemia,4120 nM
same,GI50,NCI-H23 lung,1780 nM
same,TGI,NCI-H23 lung,3380 nM
same,GI50,SF-295 CNS,1680 nM
same,TGI,SF-295 CNS,3210 nM
same,GI50,UO-31 renal,1670 nM
same,TGI,UO-31 renal,3060 nM
same,GI50,M14 melanoma,1820 nM
same,TGI,M14 melanoma,3370 nM
same,GI50,SN12C renal,1790 nM
same,TGI,SN12C renal,3360 nM
same,GI50,SF-539 CNS,1790 nM
same,TGI,SF-539 CNS,3210 nM
same,GI50,HS 578T breast,2010 nM
same,TGI,HS 578T breast,4530 nM
same,GI50,MALME-3M melanoma,1950 nM
same,TGI,MALME-3M melanoma,3640 nM
same,GI50,SNB-75 CNS,1490 nM
same,TGI,SNB-75 CNS,3000 nM
same,GI50,UACC-62 melanoma,1760 nM
same,TGI,UACC-62 melanoma,3260 nM
same,GI50,HOP-92 NSCLC,1130 nM
same,TGI,HOP-92 NSCLC,2430 nM
same,GI50,HT29 colon,2110 nM
same,TGI,HT29 colon,4040 nM
same,GI50,NCI-H226 lung,2060 nM
same,TGI,NCI-H226 lung,4690 nM
